Reference: DBAASP
In brackets after ≈: the same amount, converted by molar mass. Blank lines part the entries; values can stand above or below the compound they belong to.

Key:
Assay in all cases: ≥ marks a high value that may be exact or a test limit, other limits are often not marked, values filed in µg/mL are converted to µM
Staphylococcus capitis 1 = system: Staphylococcus capitis 1
[1] = system: Staphylococcus aureus Cowan 1
[2] = system: Yersinia pseudotuberculosis YPIII
Bacillus megaterium Bm11 = system: Bacillus megaterium Bm11
[3] = system: Escherichia coli ATCC 25922
[4] = system: Candida albicans ATCC 10231
[5] = system: Staphylococcus aureus ATCC 12600
[6] = system: Escherichia coli ATCC 11775
Botrytis cinerea = system: Botrytis cinerea
[7] = system: Pseudomonas aeruginosa 253
[8] = system: Pseudomonas aeruginosa 910
[9] = system: Pseudomonas aeruginosa 919
[10] = system: Pseudomonas aeruginosa PAO1
Escherichia coli K-12 = system: Escherichia coli K-12
[11] = system: Staphylococcus epidermidis ATCC 12228
[12] = system: Salmonella enterica subsp. enterica serovar Typhimurium ATCC 14028
[13] = system: Staphylococcus epidermidis KCTC 1917
[14] = system: Salmonella typhimurium ATCC 7731
[15] = system: Pseudomonas aeruginosa ATCC 27853
[16] = system: Escherichia coli KCTC 1682
[17] = system: Bacillus subtilis KCTC 3068
Candida parapsilosis = system: Candida parapsilosis
[18] = system: Pseudomonas aeruginosa KCTC 1637
[19] = system: Salmonella typhimurium KCTC 1926
[20] = system: Enterococcus faecalis ATCC 29212
[21] = system: Escherichia coli DH5alpha
[22] = system: Staphylococcus aureus KCTC 1621
[23] = system: Bacillus subtilis CMCC 63501
[24] = system: Staphylococcus aureus ATCC 29213
Escherichia coli UB1005 = system: Escherichia coli UB1005
[25] = system: Staphylococcus aureus ATCC 9144
[26] = system: Bacillus subtilis ATCC 6633
[27] = system: Escherichia coli ATCC 10536
[28] = system: Pseudomonas aeruginosa ATCC BAA-427
[29] = system: Staphylococcus aureus ATCC 25923
Escherichia coli JM109 = system: Escherichia coli JM109
[30] = system: Staphylococcus aureus ATCC 6538P
Staphylococcus aureus = system: Staphylococcus aureus

SMILES: CC[C@H](C)[C@H](NC(=O)CNC(=O)[C@H](CO)NC(=O)[C@H](CC(C)C)NC(=O)[C@@H](NC(=O)[C@H](CCCN=C(N)N)NC(=O)CNC(=O)[C@@H](NC(=O)[C@H](CC(C)C)NC(=O)[C@@H]1CCCN1C(=O)[C@H](C)NC(=O)[C@@H](N)Cc1ccccc1)[C@@H](C)CC)C(C)C)C(=O)N[C@@H](CC(C)C)C(N)=O [FAPLIGRVLSGIL]
- MIC (Staphylococcus capitis 1): 20 µM (≈ 27.1 µg/mL)
- MIC [1]: 20 µM (≈ 27.1 µg/mL)
- MIC [2]: ≥ 40 µM
- MIC (Bacillus megaterium Bm11): 5 µM (≈ 6.77 µg/mL)
- MIC [3]: > 40 µM
- MIC [4]: 10 µM (≈ 13.5 µg/mL)

SMILES: CC[C@H](C)[C@H](NC(=O)CNC(=O)[C@H](CO)NC(=O)[C@H](CC(C)C)NC(=O)[C@H](CC(C)C)NC(=O)CNC(=O)[C@@H](NC(=O)[C@@H](NC(=O)[C@@H]1CCCN1C(=O)CNC(=O)[C@@H](N)Cc1ccccc1)C(C)C)[C@@H](C)CC)C(=O)N[C@@H](CC(C)C)C(=O)N[C@@H](CCCCN)C(=O)N[C@@H](CO)C(=O)N[C@@H](CC(C)C)C(=O)N[C@@H](CC(C)C)C(=O)O [FGPVIGLLSGILKSLL]
- MIC [5]: ≥ 50 µM
- MIC [6]: ≥ 200 µM
- MIC (Botrytis cinerea): 5 µM (≈ 8.14 µg/mL)
- MIC [4]: > 200 µM

SMILES: CC[C@H](C)[C@H](NC(=O)[C@H](C)NC(=O)[C@H](CO)NC(=O)[C@H](CC(C)C)NC(=O)[C@@H](NC(=O)[C@H](CCCN=C(N)N)NC(=O)CNC(=O)[C@@H](NC(=O)[C@H](CC(C)C)NC(=O)[C@@H]1CCCN1C(=O)[C@H](CC(C)C)NC(=O)[C@@H](N)Cc1ccccc1)[C@@H](C)CC)C(C)C)C(=O)N[C@@H](CC(C)C)C(N)=O [FLPLIGRVLSAIL]
- MIC (Staphylococcus capitis 1): 5 µM (≈ 7.05 µg/mL)
- MIC [1]: 2.5 µM (≈ 3.53 µg/mL)
- MIC [2]: 20 µM (≈ 28.2 µg/mL)
- MIC (Bacillus megaterium Bm11): 2.5 µM (≈ 3.53 µg/mL)
- MIC [3]: > 40 µM
- MIC [4]: 2.5 µM (≈ 3.53 µg/mL)

SMILES: CC[C@H](C)[C@H](NC(=O)CN)C(=O)NCC(=O)N[C@@H](C)C(=O)N[C@H](C(=O)N[C@@H](CC(C)C)C(=O)N[C@@H](CCCCN)C(=O)N[C@H](C(=O)N[C@@H](C)C(=O)N[C@H](C(=O)N[C@H](C(=O)NCC(=O)N[C@@H](CC(C)C)C(=O)N1CCC[C@H]1C(=O)N[C@@H](C)C(=O)N[C@@H](CC(C)C)C(=O)N[C@H](C(=O)N[C@@H](CO)C(=O)N[C@@H](Cc1c[nH]c2ccccc12)C(=O)N[C@H](C(=O)N[C@@H](CCCCN)C(=O)N[C@@H](CCCN=C(N)N)C(=O)N[C@@H](CCCCN)C(=O)N[C@@H](CCCN=C(N)N)C(=O)N[C@@H](CCC(N)=O)C(=O)N[C@@H](CCC(N)=O)C(N)=O)[C@@H](C)CC)[C@@H](C)CC)[C@@H](C)O)[C@@H](C)O)C(C)C)C(C)C [GIGAVLKVATTGLPALISWIKRKRQQ]
- MIC [25]: 3.6 µM (≈ 10.1 µg/mL)
- MIC [26]: 2.4 µM (≈ 6.73 µg/mL)
- MIC [27]: 3.2 µM (≈ 8.97 µg/mL)
- MIC [21]: 4.3 µM (≈ 12.1 µg/mL)

SMILES: CC[C@H](C)[C@H](N)C(=O)N[C@@H](CC(C)C)C(=O)NCC(=O)N[C@@H](CCCCN)C(=O)N[C@H](C(=O)N[C@@H](Cc1c[nH]c2ccccc12)C(=O)N[C@@H](CCCCN)C(=O)NCC(=O)N[C@@H](CCCCN)C(=O)N[C@@H](CCCCN)C(=O)N[C@@H](CO)C(=O)N[C@@H](CC(C)C)C(=O)N[C@@H](Cc1ccccc1)C(N)=O)[C@@H](C)CC [ILGKIWKGKKSLF]
- MIC [26]: 1 µM (≈ 1.52 µg/mL)
- MIC [28]: 2 µM (≈ 3.03 µg/mL)
- MIC [29]: 1 µM (≈ 1.52 µg/mL)
- MIC [3]: 2 µM (≈ 3.03 µg/mL)
- MIC [27]: 1 µM (≈ 1.52 µg/mL)

SMILES: CC[C@H](C)[C@H](NC(=O)[C@H](C)NC(=O)[C@H](CC(C)C)NC(=O)[C@H](CS)NC(=O)[C@H](Cc1cnc[nH]1)NC(=O)[C@H](C)NC(=O)[C@H](C)NC(=O)[C@H](CS)NC(=O)[C@@H](N)CC(C)C)C(=O)NCC(=O)N[C@@H](CCCN=C(N)N)C(=O)N[C@@H](CCCN=C(N)N)C(N)=O [LCAAHCLAIGRR]
- MIC (Escherichia coli JM109): ≥ 37.4 µM
- MIC [30]: 14 µM
- MIC (Staphylococcus aureus): > 49.9 µM

The remaining lines, values ahead:

- MIC [7]: 16 µM (≈ 29.1 µg/mL)
- MIC [8]: 8 µM (≈ 14.6 µg/mL)
- MIC [9]: 22.6 µM (≈ 41.2 µg/mL)
- MIC [10]: 4 µM (≈ 7.28 µg/mL)
SMILES: CC[C@H](C)[C@H](NC(=O)[C@@H](N)Cc1ccccc1)C(=O)N[C@@H](CCCCN)C(=O)N[C@@H](Cc1c[nH]c2ccccc12)C(=O)N[C@@H](CCCCN)C(=O)N[C@@H](Cc1ccccc1)C(=O)N[C@@H](CCCN=C(N)N)C(=O)N1CCC[C@H]1C(=O)N[C@@H](Cc1c[nH]c2ccccc12)C(=O)N[C@@H](CCCCN)C(=O)N[C@@H](CCCCN)C(=O)N[C@@H](CCCN=C(N)N)C(=O)N[C@H](C(N)=O)[C@@H](C)O [FIKWKFRPWKKRT]

- MIC (Escherichia coli K-12): ≥ 40 µM
- MIC [11]: 8 µM (≈ 13.7 µg/mL)
- MIC [12]: 32 µM (≈ 55 µg/mL)
- MIC [13]: 16 µM (≈ 27.5 µg/mL)
- MIC [14]: 16 µM (≈ 27.5 µg/mL)
- MIC [15]: 8 µM (≈ 13.7 µg/mL)
- MIC [16]: 16 µM (≈ 27.5 µg/mL)
- MIC [3]: 16 µM (≈ 27.5 µg/mL)
- MIC [17]: 4 µM (≈ 6.87 µg/mL)
- MIC (Candida parapsilosis): ≥ 116 µM
- MIC [18]: ≥ 32 µM
- MIC [19]: 16 µM (≈ 27.5 µg/mL)
- MIC [20]: 32 µM (≈ 55 µg/mL)
- MIC [21]: ≥ 116 µM
- MIC [22]: 16 µM (≈ 27.5 µg/mL)
- MIC [23]: 16 µM (≈ 27.5 µg/mL)
- MIC [24]: 16 µM (≈ 27.5 µg/mL)
- MIC [10]: 16 µM (≈ 27.5 µg/mL)
- MIC (Escherichia coli UB1005): 16 µM (≈ 27.5 µg/mL)
SMILES: CC[C@H](C)[C@H](NC(=O)[C@H](CCCN=C(N)N)NC(=O)[C@H](CCC(N)=O)NC(=O)[C@@H](NC(=O)[C@@H](NC(=O)[C@H](CCCN=C(N)N)NC(=O)[C@H](CCCCN)NC(=O)[C@@H](N)Cc1ccccc1)[C@@H](C)CC)C(C)C)C(=O)N[C@@H](CCCCN)C(=O)N[C@@H](CC(=O)O)C(=O)N[C@@H](Cc1ccccc1)C(=O)N[C@@H](CC(C)C)C(=O)N[C@@H](CCCN=C(N)N)C(N)=O [FKRIVQRIKDFLR]

- MIC (Escherichia coli JM109): 1 µM (≈ 1.86 µg/mL)
SMILES: CC[C@H](C)[C@H](N)C(=O)N[C@@H](CC(C)C)C(=O)N1CCC[C@H]1C(=O)N[C@@H](Cc1c[nH]c2ccccc12)C(=O)N[C@@H](CCCCN)C(=O)N[C@@H](Cc1c[nH]c2ccccc12)C(=O)N[C@@H](CCCCN)C(=O)N[C@@H](Cc1ccccc1)C(=O)N[C@@H](Cc1ccccc1)C(=O)N1CCC[C@H]1C(=O)N[C@@H](Cc1c[nH]c2ccccc12)C(=O)N[C@@H](CCCN=C(N)N)C(=O)N[C@@H](CCCN=C(N)N)C(N)=O [ILPWKWKFFPWRR]

- MIC [7]: 8 µM (≈ 11.6 µg/mL)
- MIC [8]: 8 µM (≈ 11.6 µg/mL)
- MIC [9]: 2.83 µM (≈ 4.08 µg/mL)
- MIC [10]: 2 µM (≈ 2.89 µg/mL)
SMILES: CC[C@H](C)[C@H](NC(=O)[C@H](CCCCN)NC(=O)[C@H](CCCN=C(N)N)NC(=O)[C@H](Cc1c[nH]c2ccccc12)NC(=O)[C@H](Cc1c[nH]c2ccccc12)NC(=O)[C@@H](N)CCCN=C(N)N)C(=O)N[C@@H](Cc1c[nH]c2ccccc12)C(=O)N[C@@H](CCCCN)C(=O)N[C@@H](Cc1c[nH]c2ccccc12)C(N)=O [RWWRKIWKW]
